# According to ChEMBL document CHEMBL1136420, “Comparison of library screening techniques used in the development of dsDNA ligands” (Bioorg Med Chem Lett, 2003):
# Numbered stars: 1 amine (or outer) side, 2 acyl side, 3 side chain; on linkers, the order of the positions; unused ones are H or OH. Square brackets hold non-standard residues; d marks the D form. Peptide text beside a SMILES is read from it. Ala(2,4-dioxoquinazolin-3-yl) = N[C@@H](Cn1c(=O)[nH]c2ccccc2c1=O)C(=O)O; Ala(uracil-1-yl) = N[C@@H](Cn1ccc(=O)[nH]c1=O)C(=O)O; X2 = Cc1cn(C[C@H](N[*:1])C(=O)[*:2])c(=O)[nH]c1=O; X3 = Nc1ccn(C[C@H](N[*:1])C(=O)[*:2])c(=O)n1; X1 = Nc1ncnc2c1ncn2C[C@H](N[*:1])C(=O)[*:2]; 2Thi = N[C@@H](Cc1cccs1)C(=O)O; Sar = CNCC(=O)O
# Molecular target: Nucleic Acid
# Assay: Dissociation constant using ethidium-bromide displacement test
# Format: nucleic-acid assay
row,SMILES,Kd
1,"CC(=O)N[C@@H](CCCN=C(N)N)C(=O)N[C@@H](Cn1ccc(=O)[nH]c1=O)C(=O)N(C)CC(=O)N[C@@H](Cn1c(=O)[nH]c2ccccc2c1=O)C(=O)N[C@@H](Cn1c(=O)[nH]c2ccccc2c1=O)C(=O)N[C@@H](Cc1cccs1)C(=O)N[C@@H](CCCN=C(N)N)C(N)=O (Ac-R[Ala(uracil-1-yl)][Sar][Ala(2,4-dioxoquinazolin-3-yl)][Ala(2,4-dioxoquinazolin-3-yl)][2Thi]R-NH2)",230 µM
2,"CC(=O)N[C@@H](CCCN=C(N)N)C(=O)N[C@@H](Cn1ccc(=O)[nH]c1=O)C(=O)N(C)CC(=O)N[C@@H](Cn1c(=O)[nH]c2ccccc2c1=O)C(=O)N[C@@H](Cn1c(=O)[nH]c2ccccc2c1=O)C(=O)N[C@@H](Cn1cnc2c(N)ncnc21)C(=O)N[C@@H](CCCN=C(N)N)C(N)=O (Ac-R[Ala(uracil-1-yl)][Sar][Ala(2,4-dioxoquinazolin-3-yl)][Ala(2,4-dioxoquinazolin-3-yl)][X1]R-NH2)",390 µM
3,"CC(=O)N[C@@H](CCCN=C(N)N)C(=O)N[C@@H](Cn1ccc(=O)[nH]c1=O)C(=O)N(C)CC(=O)N[C@@H](Cn1c(=O)[nH]c2ccccc2c1=O)C(=O)N[C@@H](Cn1c(=O)[nH]c2ccccc2c1=O)C(=O)N[C@@H](Cn1ccc(N)nc1=O)C(=O)N[C@@H](CCCN=C(N)N)C(N)=O (Ac-R[Ala(uracil-1-yl)][Sar][Ala(2,4-dioxoquinazolin-3-yl)][Ala(2,4-dioxoquinazolin-3-yl)][X3]R-NH2)",630 µM
4,"CC(=O)N[C@@H](CCCN=C(N)N)C(=O)N[C@@H](Cn1ccc(=O)[nH]c1=O)C(=O)N(C)CC(=O)N[C@@H](Cn1cc(C)c(=O)[nH]c1=O)C(=O)N[C@@H](Cn1c(=O)[nH]c2ccccc2c1=O)C(=O)N[C@@H](Cn1cnc2c(N)ncnc21)C(=O)N[C@@H](CCCN=C(N)N)C(N)=O (Ac-R[Ala(uracil-1-yl)][Sar][X2][Ala(2,4-dioxoquinazolin-3-yl)][X1]R-NH2)",220 µM
5,"CC(=O)N[C@@H](CCCN=C(N)N)C(=O)N[C@@H](Cn1ccc(=O)[nH]c1=O)C(=O)N(C)CC(=O)N[C@@H](Cn1c(=O)[nH]c2ccccc2c1=O)C(=O)N[C@@H](Cn1c(=O)[nH]c2ccccc2c1=O)C(=O)N[C@@H](Cn1c(=O)[nH]c2ccccc2c1=O)C(=O)N[C@@H](CCCN=C(N)N)C(N)=O (Ac-R[Ala(uracil-1-yl)][Sar][Ala(2,4-dioxoquinazolin-3-yl)][Ala(2,4-dioxoquinazolin-3-yl)][Ala(2,4-dioxoquinazolin-3-yl)]R-NH2)",91 µM
6,"CC(=O)N[C@@H](CCCN=C(N)N)C(=O)N[C@@H](Cn1ccc(=O)[nH]c1=O)C(=O)N(C)CC(=O)N[C@@H](Cn1c(=O)[nH]c2ccccc2c1=O)C(=O)N[C@@H](Cn1c(=O)[nH]c2ccccc2c1=O)C(=O)N[C@@H](Cn1cc(C)c(=O)[nH]c1=O)C(=O)N[C@@H](CCCN=C(N)N)C(N)=O (Ac-R[Ala(uracil-1-yl)][Sar][Ala(2,4-dioxoquinazolin-3-yl)][Ala(2,4-dioxoquinazolin-3-yl)][X2]R-NH2)",490 µM
7,"CC(=O)N[C@@H](CCCN=C(N)N)C(=O)N[C@@H](Cn1ccc(=O)[nH]c1=O)C(=O)N(C)CC(=O)N[C@@H](Cn1c(=O)[nH]c2ccccc2c1=O)C(=O)N[C@@H](Cn1c(=O)[nH]c2ccccc2c1=O)C(=O)N[C@@H](Cn1ccc(=O)[nH]c1=O)C(=O)N[C@@H](CCCN=C(N)N)C(N)=O (Ac-R[Ala(uracil-1-yl)][Sar][Ala(2,4-dioxoquinazolin-3-yl)][Ala(2,4-dioxoquinazolin-3-yl)][Ala(uracil-1-yl)]R-NH2)",610 µM
